Assay results reported in ChEMBL document CHEMBL5038598, “Design and Synthesis of Pyrrolo[2,3-d]pyrimidine-Derived Leucine-Rich Repeat Kinase 2 (LRRK2) Inhibitors Using a Checkpoint Kinase 1 (CHK1)-Derived Crystallographic Surrogate” (J Med Chem, 2021).
pIC50, pKd: −log10 of the molar value. The source made the active and inactive calls. No cut-off for these calls is given here.

How the values were obtained:
[1] = target: T1, Interleukin-1 receptor-associated kinase 3 (Homo sapiens) (UniProt Q9Y616); assay: Inhibition of IRAK3 expressed in human PBMCs measured at 10 uM by KiNativ profiling analysis relative to control
T1 sequence (whole entry): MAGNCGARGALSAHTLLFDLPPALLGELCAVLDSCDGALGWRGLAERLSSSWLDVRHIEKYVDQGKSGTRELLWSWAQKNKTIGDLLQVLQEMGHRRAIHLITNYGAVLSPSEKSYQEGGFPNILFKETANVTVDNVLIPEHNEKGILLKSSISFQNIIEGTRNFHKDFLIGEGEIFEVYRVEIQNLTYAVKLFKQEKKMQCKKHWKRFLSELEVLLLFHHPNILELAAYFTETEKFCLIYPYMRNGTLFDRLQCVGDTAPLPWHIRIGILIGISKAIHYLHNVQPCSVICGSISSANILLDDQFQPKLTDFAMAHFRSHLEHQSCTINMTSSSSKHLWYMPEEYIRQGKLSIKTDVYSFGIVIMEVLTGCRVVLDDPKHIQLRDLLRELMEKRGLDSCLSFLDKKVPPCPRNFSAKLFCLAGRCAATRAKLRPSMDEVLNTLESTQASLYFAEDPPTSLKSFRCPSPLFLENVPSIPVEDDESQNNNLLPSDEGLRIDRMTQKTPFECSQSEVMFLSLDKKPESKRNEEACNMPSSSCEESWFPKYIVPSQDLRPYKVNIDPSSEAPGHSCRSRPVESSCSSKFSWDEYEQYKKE

P-glycoprotein (human) = assay: Apparent permeability in MDCK-MDR1 cells expressing human P-glycoprotein; format: ADME, cell-based, Canis lupus familiaris; settings: dog
[2] = target: Receptor-type tyrosine-protein kinase FLT3 (Homo sapiens) (UniProt P36888); assay: Inhibition of human FLT3 WT expressed in bacterial system assessed as remaining activity measured at 1 uM by DiscoveRx KINOMEscan assay
[3] = target: T2, Leucine-rich repeat serine/threonine-protein kinase 2 (Homo sapiens, UniProt Q5S007, G2019S); assay: Inhibition of recombinant human GST tagged truncated LRRK2 G2019S mutant using fluorescein-labeled LRRKtide as substrate in presence of ATP preincubated for 50 mins followed by anti-phospho-LRRKtide antibody addition and measured after 30 mins by TR-FRET based Lanthascreen kinase activity assay
[4] = Clearance in human liver microsomes; format: ADME, Microsome; settings: read-out: CLH (converted)
[5] = Binding affinity to human PIP5K2C (M1/A421) WT expressed in mammalian system assessed as dissociation constant measured at 1 uM by DiscoveRx KINOMEscan assay
Homo sapiens = species on record: Homo sapiens; assay: Inhibition of human PIP5K2C (M1/A421) WT expressed in mammalian system assessed as remaining activity measured at 1 uM by DiscoveRx KINOMEscan assay relative to control
[6] = target: Leucine-rich repeat serine/threonine-protein kinase 2 (Mus musculus, UniProt Q5S006); assay: Inhibition of LRRK2-WT in C57BL/6 mouse brain at 10 to 150 mg/kg and measured after 1 hrs by western blotting; format: organism-based
[7] = target: T2, Leucine-rich repeat serine/threonine-protein kinase 2; assay: Inhibition of LRRK2-pSer935 in LRRK2 G2019S mutant expressing human HEK293 cells and measured after 48 hrs by ICW assay; format: cell-based
BCRP (human) = assay: Efflux ratio of apparent permeability in MDCK cells expressing human BCRP; format: ADME, cell-based, Canis lupus familiaris; settings: dog
[8] = target: Mitogen-activated protein kinase kinase kinase 1 (Homo sapiens, UniProt Q13233); assay: Inhibition of MAP3K1 expressed in human PBMCs measured by KiNativ profiling analysis
[9] = Clearance in Beagle dog plasma at 1 mg/kg, IV relative to liver blood flow; format: ADME, organism-based, Canis lupus familiaris
[10] = Drug uptake in Mdr1a/ 1b-BCRP knockout C57BL/6 mouse plasma at 5 mg/kg, sc and measured after 0.5 hrs; format: ADME, organism-based
[11] = target: T3, Leucine-rich repeat serine/threonine-protein kinase 2 (Homo sapiens, UniProt Q5S007); assay: Inhibition of LRRK2-pSer935 in LRRK2 WT expressing human HEK293 cells and measured after 48 hrs by ICW assay; format: cell-based
[12] = target: T3, Leucine-rich repeat serine/threonine-protein kinase 2; assay: Inhibition of LRRK2 WT expressed in human PBMCs measured by KiNativ profiling analysis
[13] = target: T3, Leucine-rich repeat serine/threonine-protein kinase 2; assay: Inhibition of recombinant human LRRK2 WT using fluorescein-labeled LRRKtide as substrate in presence of ATP preincubated for 50 mins followed by anti-phospho-LRRKtide antibody addition and measured after 30 mins by TR-FRET based Lanthascreen kinase activity assay
[14] = target: T4, Phosphatidylinositol 4-kinase beta (Homo sapiens, UniProt Q9UBF8); assay: Inhibition of human PIK4CB (M1/M828) WT expressed in mammalian system assessed as remaining activity measured at 1 uM by DiscoveRx KINOMEscan assay relative to control
[15] = target: T4, Phosphatidylinositol 4-kinase beta; assay: Binding affinity to human PIK4CB (M1/M828) WT expressed in mammalian system assessed as dissociation constant measured at 1 uM by DiscoveRx KINOMEscan assay
[16] = target: T5, Adenosine receptor A2b (Homo sapiens) (UniProt P29275); assay: Binding affinity to human Adenosine receptor A2b at 1 uM by radioligand binding assay relative to control
T5 sequence (whole entry): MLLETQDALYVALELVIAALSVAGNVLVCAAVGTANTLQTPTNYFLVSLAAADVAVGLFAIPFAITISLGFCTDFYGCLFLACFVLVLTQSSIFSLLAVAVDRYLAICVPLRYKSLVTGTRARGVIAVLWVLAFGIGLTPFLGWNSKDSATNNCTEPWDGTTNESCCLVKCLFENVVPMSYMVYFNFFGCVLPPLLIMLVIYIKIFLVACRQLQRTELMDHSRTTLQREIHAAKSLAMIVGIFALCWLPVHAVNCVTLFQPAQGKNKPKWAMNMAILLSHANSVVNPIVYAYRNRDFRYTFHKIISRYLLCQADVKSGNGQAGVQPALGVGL

[17] = Half life in steady state in Beagle dog plasma at 1 mg/kg, IV […]; format: ADME, organism-based, Canis lupus familiaris
[18] = target: Receptor-type tyrosine-protein kinase FLT3 (Homo sapiens, UniProt P36888, D835V/ITD); assay: Binding affinity to human FLT3 ITD, D835V (V592/Y969) mutant expressed in mammalian system assessed as dissociation constant measured at 1 uM by DiscoveRx KINOMEscan assay
[19] = Volume of distribution in steady state in Sprague-Dawley rat plasma at 1 mg/kg, IV […]; format: ADME, organism-based; settings: read-out: Vdss
[20] = Oral bioavailability in Beagle dog plasma at 2 mg/kg relative to liver blood flow; format: ADME, organism-based, Canis lupus familiaris
[21] = Half life in Sprague-Dawley rat plasma at 1 mg/kg, IV […]; format: ADME, organism-based
[22] = Clearance in Sprague dawley rat plasma at 1 mg/kg, IV relative to liver blood flow; format: ADME, organism-based
[23] = Ratio of drug level in C57BL/6 WT mouse brain to plasma at 5 mg/kg, sc and measured after 0.5 hrs; format: ADME, organism-based; settings: for Kp at 0.5 h: C57BL/6, mouse, brain and plasma
[24] = Oral bioavailability in Sprague-Dawley rat plasma at 2 mg/kg relative to liver blood flow; format: ADME, organism-based
[25] = Mutagenecity in Salmonella enterica subsp. enterica serovar Typhimurium by Ames test; format: toxicity

T2 sequence (Q5S007 whole entry G2019S, the tested form may be a part): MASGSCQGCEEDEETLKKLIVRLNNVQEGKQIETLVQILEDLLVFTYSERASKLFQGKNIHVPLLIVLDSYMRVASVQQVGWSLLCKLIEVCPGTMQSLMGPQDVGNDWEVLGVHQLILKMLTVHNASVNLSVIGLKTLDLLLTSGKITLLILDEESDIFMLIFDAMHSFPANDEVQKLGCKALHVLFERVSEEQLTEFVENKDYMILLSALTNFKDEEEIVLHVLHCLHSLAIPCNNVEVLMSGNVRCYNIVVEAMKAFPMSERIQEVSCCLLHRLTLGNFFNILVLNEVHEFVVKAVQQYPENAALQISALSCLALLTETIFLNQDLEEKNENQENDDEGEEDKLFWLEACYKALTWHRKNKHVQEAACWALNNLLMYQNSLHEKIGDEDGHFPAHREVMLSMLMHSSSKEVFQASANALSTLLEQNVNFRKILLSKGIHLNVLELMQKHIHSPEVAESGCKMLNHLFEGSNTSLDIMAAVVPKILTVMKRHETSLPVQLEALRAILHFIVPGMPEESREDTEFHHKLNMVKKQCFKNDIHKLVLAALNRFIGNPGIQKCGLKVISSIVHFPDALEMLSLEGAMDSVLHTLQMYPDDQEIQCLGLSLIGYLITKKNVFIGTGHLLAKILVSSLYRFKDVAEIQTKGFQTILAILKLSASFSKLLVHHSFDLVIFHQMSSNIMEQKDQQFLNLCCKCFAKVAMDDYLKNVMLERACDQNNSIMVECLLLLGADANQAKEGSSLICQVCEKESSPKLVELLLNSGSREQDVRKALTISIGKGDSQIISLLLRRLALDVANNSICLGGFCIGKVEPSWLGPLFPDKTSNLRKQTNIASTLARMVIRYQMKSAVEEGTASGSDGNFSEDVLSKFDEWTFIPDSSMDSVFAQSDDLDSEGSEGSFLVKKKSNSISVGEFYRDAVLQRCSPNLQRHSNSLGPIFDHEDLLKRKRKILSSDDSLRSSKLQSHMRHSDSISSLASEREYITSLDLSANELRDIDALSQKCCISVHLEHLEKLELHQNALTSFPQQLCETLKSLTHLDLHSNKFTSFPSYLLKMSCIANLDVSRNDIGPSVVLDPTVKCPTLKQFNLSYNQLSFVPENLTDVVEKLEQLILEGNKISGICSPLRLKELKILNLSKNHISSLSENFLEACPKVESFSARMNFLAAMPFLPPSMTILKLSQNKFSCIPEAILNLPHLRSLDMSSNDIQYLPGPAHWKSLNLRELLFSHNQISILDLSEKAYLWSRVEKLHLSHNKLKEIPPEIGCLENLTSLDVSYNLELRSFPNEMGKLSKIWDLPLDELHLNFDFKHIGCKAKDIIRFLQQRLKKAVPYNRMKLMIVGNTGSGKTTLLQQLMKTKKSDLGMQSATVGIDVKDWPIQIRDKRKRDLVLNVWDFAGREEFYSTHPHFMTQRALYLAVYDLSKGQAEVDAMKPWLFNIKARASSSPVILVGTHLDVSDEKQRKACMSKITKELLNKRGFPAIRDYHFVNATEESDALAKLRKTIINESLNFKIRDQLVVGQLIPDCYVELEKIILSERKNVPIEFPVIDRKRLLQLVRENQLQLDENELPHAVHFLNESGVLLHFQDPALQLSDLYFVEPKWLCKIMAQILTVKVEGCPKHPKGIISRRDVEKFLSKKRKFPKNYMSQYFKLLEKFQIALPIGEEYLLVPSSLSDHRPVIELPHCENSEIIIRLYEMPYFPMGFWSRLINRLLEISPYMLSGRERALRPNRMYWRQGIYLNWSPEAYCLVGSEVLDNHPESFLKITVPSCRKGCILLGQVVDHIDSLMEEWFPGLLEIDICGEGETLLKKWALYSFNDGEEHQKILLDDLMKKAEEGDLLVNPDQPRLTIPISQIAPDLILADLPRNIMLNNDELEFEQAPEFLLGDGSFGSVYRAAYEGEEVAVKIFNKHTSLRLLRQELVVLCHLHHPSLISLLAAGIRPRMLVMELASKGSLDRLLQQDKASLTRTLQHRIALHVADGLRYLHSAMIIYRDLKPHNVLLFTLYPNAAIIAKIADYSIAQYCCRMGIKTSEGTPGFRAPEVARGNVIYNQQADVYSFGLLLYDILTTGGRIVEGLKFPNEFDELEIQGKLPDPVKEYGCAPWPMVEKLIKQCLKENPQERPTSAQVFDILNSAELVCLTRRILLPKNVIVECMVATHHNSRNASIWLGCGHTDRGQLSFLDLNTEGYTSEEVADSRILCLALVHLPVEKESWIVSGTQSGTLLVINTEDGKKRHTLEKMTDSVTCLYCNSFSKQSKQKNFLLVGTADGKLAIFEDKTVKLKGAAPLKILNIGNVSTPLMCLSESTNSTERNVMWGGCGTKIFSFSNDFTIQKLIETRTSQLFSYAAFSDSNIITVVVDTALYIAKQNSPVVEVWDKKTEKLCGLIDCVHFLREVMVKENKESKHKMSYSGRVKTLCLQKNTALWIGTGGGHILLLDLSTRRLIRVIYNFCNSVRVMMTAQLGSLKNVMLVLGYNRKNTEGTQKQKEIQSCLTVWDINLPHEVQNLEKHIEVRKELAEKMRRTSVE
T3 sequence (Q5S007 whole entry): as the sequence (Q5S007 whole entry G2019S, the tested form may be a part) above, with S2019G counted along it
Chain of Leucine-rich repeat serine/threonine-protein kinase 2 (Mus musculus, UniProt Q5S006) (Q5S006 whole entry): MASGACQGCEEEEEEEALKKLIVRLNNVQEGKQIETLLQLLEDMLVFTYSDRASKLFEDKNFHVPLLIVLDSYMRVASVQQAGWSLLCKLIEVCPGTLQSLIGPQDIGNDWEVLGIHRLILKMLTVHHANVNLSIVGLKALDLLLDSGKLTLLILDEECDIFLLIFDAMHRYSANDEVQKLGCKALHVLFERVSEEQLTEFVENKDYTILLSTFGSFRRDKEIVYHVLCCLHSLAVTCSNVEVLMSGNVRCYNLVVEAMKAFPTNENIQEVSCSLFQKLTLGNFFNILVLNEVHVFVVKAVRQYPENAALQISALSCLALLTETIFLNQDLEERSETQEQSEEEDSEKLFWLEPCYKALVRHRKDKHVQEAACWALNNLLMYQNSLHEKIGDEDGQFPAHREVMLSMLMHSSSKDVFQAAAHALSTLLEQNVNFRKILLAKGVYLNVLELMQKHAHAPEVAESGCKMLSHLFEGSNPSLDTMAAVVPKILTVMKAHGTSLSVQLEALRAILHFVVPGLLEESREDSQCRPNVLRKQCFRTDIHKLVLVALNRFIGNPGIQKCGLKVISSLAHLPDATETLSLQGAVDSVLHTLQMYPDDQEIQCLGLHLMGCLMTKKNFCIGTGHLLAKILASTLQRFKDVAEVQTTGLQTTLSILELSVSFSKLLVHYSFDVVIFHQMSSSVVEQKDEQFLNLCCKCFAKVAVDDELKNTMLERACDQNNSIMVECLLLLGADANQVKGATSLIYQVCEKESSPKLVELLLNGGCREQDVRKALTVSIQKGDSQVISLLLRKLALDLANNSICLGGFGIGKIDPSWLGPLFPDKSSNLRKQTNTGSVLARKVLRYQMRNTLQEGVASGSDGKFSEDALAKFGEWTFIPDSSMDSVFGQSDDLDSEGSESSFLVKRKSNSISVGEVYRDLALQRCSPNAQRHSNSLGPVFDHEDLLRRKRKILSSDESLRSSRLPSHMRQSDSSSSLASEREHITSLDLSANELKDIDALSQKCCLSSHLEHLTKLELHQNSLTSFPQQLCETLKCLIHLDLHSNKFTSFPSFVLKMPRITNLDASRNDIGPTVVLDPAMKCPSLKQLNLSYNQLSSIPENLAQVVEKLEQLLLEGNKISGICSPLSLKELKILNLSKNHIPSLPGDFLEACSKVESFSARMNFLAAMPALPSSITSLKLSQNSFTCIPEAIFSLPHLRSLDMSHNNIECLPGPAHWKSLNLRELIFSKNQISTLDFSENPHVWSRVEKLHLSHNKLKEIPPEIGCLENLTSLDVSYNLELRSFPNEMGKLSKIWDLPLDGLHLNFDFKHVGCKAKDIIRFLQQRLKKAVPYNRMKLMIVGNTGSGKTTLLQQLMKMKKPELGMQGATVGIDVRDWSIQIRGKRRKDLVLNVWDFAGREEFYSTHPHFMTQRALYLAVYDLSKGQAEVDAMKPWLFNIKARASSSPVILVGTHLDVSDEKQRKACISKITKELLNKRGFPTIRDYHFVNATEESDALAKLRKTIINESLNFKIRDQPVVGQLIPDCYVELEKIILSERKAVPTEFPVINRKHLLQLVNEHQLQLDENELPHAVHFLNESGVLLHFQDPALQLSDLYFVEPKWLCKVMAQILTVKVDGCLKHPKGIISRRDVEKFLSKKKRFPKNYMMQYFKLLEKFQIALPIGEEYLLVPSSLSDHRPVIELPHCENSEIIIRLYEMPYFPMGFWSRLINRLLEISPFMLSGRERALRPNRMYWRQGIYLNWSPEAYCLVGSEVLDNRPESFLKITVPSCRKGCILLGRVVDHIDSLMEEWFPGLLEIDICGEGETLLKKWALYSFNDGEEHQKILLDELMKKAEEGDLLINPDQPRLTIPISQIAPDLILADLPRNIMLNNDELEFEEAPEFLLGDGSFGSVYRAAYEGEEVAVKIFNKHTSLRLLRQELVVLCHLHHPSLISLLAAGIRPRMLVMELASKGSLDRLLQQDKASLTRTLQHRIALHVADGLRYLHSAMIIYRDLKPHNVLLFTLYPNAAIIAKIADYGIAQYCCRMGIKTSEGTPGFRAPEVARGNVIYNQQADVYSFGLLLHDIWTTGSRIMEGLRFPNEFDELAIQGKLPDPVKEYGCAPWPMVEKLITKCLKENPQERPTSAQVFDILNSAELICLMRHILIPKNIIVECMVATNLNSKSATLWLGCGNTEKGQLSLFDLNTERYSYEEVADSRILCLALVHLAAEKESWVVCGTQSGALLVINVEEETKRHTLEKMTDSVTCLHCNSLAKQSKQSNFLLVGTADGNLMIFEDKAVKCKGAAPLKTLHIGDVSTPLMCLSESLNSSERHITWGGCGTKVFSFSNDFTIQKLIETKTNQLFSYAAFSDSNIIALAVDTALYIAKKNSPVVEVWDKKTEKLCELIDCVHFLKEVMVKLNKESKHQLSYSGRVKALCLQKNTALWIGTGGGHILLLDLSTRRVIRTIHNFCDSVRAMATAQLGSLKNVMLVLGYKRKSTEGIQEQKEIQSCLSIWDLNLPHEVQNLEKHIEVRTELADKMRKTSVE

Compound | inhibition [1] | Papp (P-glycoprotein (human)) | inhibition [2] | pIC50 [3] | CLint scaled [4] | pKd [5] | Activity (Homo sapiens) | pIC50 [6] | pIC50 [7] | efflux ratio (BCRP (human)) | pIC50 [8] | clearance [9] | concentration at 0.5 h [10] | pIC50 [11] | pIC50 [12] | pIC50 [13] | Activity [14] | pKd [15] | inhibition [16] | half-life [17] | further results
Cc1c(Nc2nc(N)c3c(C#N)c(N4CCC[C@H]4C)n(C)c3n2)cnn1[C@@H]1CCOC1 | -6% | 4.6 ×10⁻⁶ cm/s | inactive | 7.92 | 28.3 mL/min/kg | 6.72 | < 37% | 7.96 | 7.10 | 34 | 5.96 | 36.7 mL/min/kg | 1960 ng/mL | 6.74 | 7.17 | 7.70 | < 37% | 6.07 | 18% | 30 min | pKd [18]: 6.33; Vd [19]: 1.7 L/kg; bioavailability [20]: 25%; half-life [21]: 6 min; clearance [22]: 158 mL/min/kg; Kp at 0.5 h [23]: 0.06; Ratio ([23]; mouse, brain, 5 mg/kg, 0.5 h): 0.07; bioavailability [24]: 5%; Activity [25]: Non-Toxic
Cc1c(Nc2nc(N)c3c(C#N)c(N4CCC[C@H]4C)n(C)c3n2)cnn1[C@H]1CCOC1 | 37% | 4.3 ×10⁻⁶ cm/s | inactive | 7.85 | 23.3 mL/min/kg | 6.37 | < 37% | 7.66 | 7.29 | 22 | 6.08 | 53.3 mL/min/kg | 1600 ng/mL | 6.85 | 7.07 | 7.64 | < 37% | 6.14 | 26% | 36 min | pKd [18]: 7.17; Vd [19]: 1.1 L/kg; bioavailability [20]: 96%; half-life [21]: 12 min; clearance [22]: 76.7 mL/min/kg; Kp at 0.5 h [23]: 0.15; bioavailability [24]: < 1%; Activity [25]: Non-Toxic
